Earlier results, collected in patent US20110092601A1, “LYSINE-SPECIFIC DEMETHYLASE INHIBITORS” (THE JOHNS HOPKINS UNIVERSITY, priority 2007, published 2011).

Tested on: P19 embryonal carcinoma cells
Settings: P19 embryonal carcinoma cells treated with tranylcypromine

N[C@@H]1C[C@H]1c1ccccc1 [tranylcypromine, (1R,2S)-2-phenylcyclopropan-1-amine]
Effect on transcription of the Egr1 and Oct4 genes: transcriptional de-repression of the Egr1 and Oct4 genes
